According to patent US9447103B2, “Inauhzin analogues that induce P53, inhibit cell growth, and have antitumor activity” (Indiana University Research and Technology Corp., priority 2012, dated 2016):
Values joined by “and” are separate entries in the source; they are usually repeats but may differ in a detail not shown here. Equal values may be shown once. “Also recorded” adds a separate entry of the source. Read-outs that look alike come from different tables or passages of the source. Values belong to the compound of their own block, whether it stands above or below them.

Tests used:
[1] = system: H1299 cells and HCT116^−/− cells; experiment: Cell growth inhibition (WST), statements covering p53-null lines; conditions: for inhibitory activity in p53-null cells: in contrast to p53-containing cells
Experimental: (§2) The EC50 values for their ability to inhibit cell growth were calculated through serial dilution of their concentrations with the highest concentration at 50 μM.
(§3) Human lung carcinoma H460, non-small-cell lung cancer H1299, human colon cancer HCT116 (HCT116^+/+), and human embryonic fibroblast WI-38 were bought from the American Type Culture Collection (ATCC). […] Those cell lines were cultured in Dulbecco's modified Eagle's medium supplemented with 10% fetal bovine serum, 100 U per mL penicillin, and 100 U per mL streptomycin. Compounds were dissolved in DMSO and diluted directly into the medium to the indicated concentrations; 0.1% DMSO was used as a control.
(§4) Cell Viability Assay. To assess cell growth, the cell counting kit (Dojindo Molecular Technologies Inc., Gaithersburg, Md.) was used according to manufacturer's instructions. Cell suspensions were seeded at 3,000 cells per well in 96-well culture plates and incubated overnight at 37° C. Compounds were added into the plates and incubated at 37° C. for 72 hrs. Cell growth inhibition was determined by adding WST-8 at a final concentration of 10% to each well, and the absorbance of the samples was measured at 450 nm using a Microplate Reader (Molecular Device, SpecrtraMax M5^e). EC50 values were determined by the Hill equation using Igor 4.01 (Lake Oswego, Oreg., USA).

[2] = system: H460 and HCT116^+/+ cells; experiment: Cell growth inhibition (WST), statements covering both p53-containing lines; assay type: cell-based, human; conditions: for EC90 fold lower than INZ: H460 and HCT116^+/+; for EC90: Homo sapiens, H460 and HCT116^+/+ together, read-out: EC90 values, range over H460 and HCT116^+/+
Excerpt: (§1) Cell Culture and Immunoblotting Analysis.

p53 = p53 induction by immunoblotting (IB), H460 and/or HCT116^+/+ cells (line not singled out); assay type: cell-based, human; conditions: 18 hrs; for p53 induction at 0.5 μM: IB; for p53 induction / activation: synthetic analogs, IB, 0.5, 2, 10 μM, compared to INZ
Excerpt: Initial Inauhzin analogs were purchased and tested the activity on H460 and HCT116^p53+/+ by IB.
This study also investigated the activity of the compounds in cell-based assays for their ability to induce p53 levels in p53 containing human colon cancer HCT116^+/+ cells and/or human lung cancer H460 cells using immunoblotting (IB) (FIG. 1 and FIG. 8). […] Both triazino[5,6-b]indol (G1) and phenothiazine (G2) are essential functional groups for p53 induction. […] Therefore, further attention was focused on the structural modifications of the pharmacologically active core: triazino[5,6-b]indol or phenothiazine. Modifications included extension of carbon chain length on R1 (14) (FIG. 2B), the substitution on the phenothiazine ring (G2) (6-13) (FIG. 2A) or on the triazino[5,6-b]indol ring (G1) (15-36) (FIGS. 2B-2D).
as §1

[3] = system: H460 orthotopic lung tumors; experiment: H460 orthotopic lung tumor model, bioluminescent imaging; assay type: in vivo, SCID mice; conditions: i.p. 50 mg/kg once a day for 3 weeks, H460-Luc cells in pleural space
Experimental: FIGS. 13A and 13B show the effects of compound 37 on the growth of H460 orthotopic lung tumors. Each mouse was dosed once a day via i.p. with either vehicle or compound 37 (50 mg/kg) for 3 weeks starting 4 days after implantation of 5×10^5 H460-Luc tumor cells into the pleural space of the SCID mice. […] Each value is a mean of five animals ±SD. FIG. 13B is bioluminescent imaging (BLI) of orthotopic lung tumors in SCID mice.
The effects of compound 8 on the growth of H460 orthotopic lung tumors. Each mouse was dosed once a day via i.p. with either vehicle or 14 (50 mg/kg) for 3 weeks starting 4 days after implantation of 5×10^5 H460-Luc tumor cells into the pleural space of the SCID mice. […] Each value is a mean of five animals ±SD.

H460 = experiment: Cell viability assay (3-day WST-8), H460; assay type: cell-based, human; conditions: for fold higher potency than INZ in growth inhibition: H460, versus INZ; for EC90 / EC50: H460, p53 wild type; for EC90: calculated from EC50 and Hill slope, read-out: EC90 cell growth inhibition; for EC50: 72 hrs, average of triplicates, read-out: EC50 cell growth inhibition
Experimental: (§5) Those cell lines were cultured in Dulbecco's modified Eagle's medium supplemented with 10% fetal bovine serum, 100 U per mL penicillin, and 100 U per mL streptomycin. Compounds were dissolved in DMSO and diluted directly into the medium to the indicated concentrations; 0.1% DMSO was used as a control.
(§6) Cell Viability Assay. To assess cell growth, the cell counting kit (Dojindo Molecular Technologies Inc., Gaithersburg, Md.) was used according to manufacturer's instructions. Cell suspensions were seeded at 3,000 cells per well in 96-well culture plates and incubated overnight at 37° C. Compounds were added into the plates and incubated at 37° C. for 72 hrs. Cell growth inhibition was determined by adding WST-8 at a final concentration of 10% to each well, and the absorbance of the samples was measured at 450 nm using a Microplate Reader (Molecular Device, SpecrtraMax M5^e).

HCT116^+/+ = experiment: Cell viability assay (3-day WST-8), HCT116^+/+; assay type: cell-based, human; conditions: for fold higher potency than INZ in growth inhibition: versus INZ
Experimental: as §5, §6

H1299 = experiment: Cell viability assay (3-day WST-8), H1299 (p53 null); conditions: for EC50: read-out: EC50 cell growth inhibition
Experimental: as §5, §6

HCT116^−/− = experiment: Cell viability assay (3-day WST-8), HCT116^−/− (p53 null); conditions: for EC50: read-out: EC50 cell growth inhibition
Experimental: as §2, §3, §4

[4] = system: xenograft tumors derived from p53-harboring lung cancer H460 and colon cancer HCT116^+/+ cells; conditions: background, earlier work; cited from earlier work
[5] = Homo sapiens, HCT-116, HCT116+/+ cells, values of b177 (differ from Table 1), read-out: EC50 growth inhibition
[6] = Homo sapiens, HCT-116, HCT116^+/+, p53 wild type, calculated from EC50 and Hill slope, read-out: EC90 cell growth inhibition

EC90 fold lower than INZ ([2]; versus INZ): 1.5 fold | EC90 [2]: 20 to 30 µM
SMILES: CCC(Sc1nnc2c(n1)[nH]c1cc(C)ccc12)C(=O)N1c2ccccc2Sc2ccccc21 (stereo not drawn) [Compound 19, 2-((7-methyl-5H-[1,2,4]triazino[5,6-b]indol-3-yl)thio)-1-(10H-phenothiazin-10-yl)butan-1-one]
inhibitory activity in p53-null cells [1]: much less effective | p53 induction at 0.5 μM (p53): significant effect on p53 induction compared to INZ

EC90 fold lower than INZ ([2]; versus INZ): 3-10 fold | EC90 [2]: 3.5 to 10 µM | EC90 (H460; Homo sapiens, NCI-H460): 3.5 µM | EC90 fold lower than INZ (HCT116^+/+; HCT116+/+ cells, b177): 5 fold | EC90 (HCT116^+/+; Homo sapiens, HCT-116, HCT116+/+ cells, b177, read-out: EC90): ~10 µM | EC50 (HCT116^+/+; [5]): 1.41 µM | EC90 (HCT116^+/+; [6]): 10 µM
SMILES: CCC(Sc1nnc2c(n1)[nH]c1ccccc12)C(=O)N1c2ccccc2Cc2ccccc21 (stereo not drawn) [Compound 8, 2-((5H-[1,2,4]triazino[5,6-b]indol-3-yl)thio)-1-(acridin-10(9H)-yl)butan-1-one]
bioactivity against orthotopic lung cancers (tumor burden by BLI, words) [3]: exhibited highly promising bioactivity against orthotopic lung cancers | inhibitory activity in p53-null cells [1]: much less effective | fold higher potency than INZ in growth inhibition (H460): more than 2 fold | fold higher potency than INZ in growth inhibition (HCT116^+/+; HCT116^+/+): more than 2 fold | fold higher potency than INZ in growth inhibition (HCT116^+/+; HCT116^+/+, listed as INZ-14): over 2 fold | p53 induction at 0.5 μM (p53): drastically induced p53 | p53 induction / activation (p53): more potent in p53 activation than their parental compound INZ

SMILES: CCC(Sc1nnc2c3ccccc3n(CC(=O)c3ccccc3)c2n1)C(=O)N1c2ccccc2Sc2ccccc21 (stereo not drawn) [Compound 33, 2-((5-(2-oxo-2-phenylethyl)-5H-[1,2,4]triazino[5,6-b]indol-3-yl)thiol)-1-(10H-phenothiazin-10-yl)butan-1-one]
p53 induction / activation (p53): significant decrease in activity

SMILES: CCC(Sc1nnc2c(n1)[nH]c1cc(OC)ccc12)C(=O)N1c2ccccc2Sc2ccccc21 (stereo not drawn) [Compound 18, 2-((7-methoxy-5H-[1,2,4]triazino[5,6-b]indol-3-yl)thio)-1-(10H-phenothiazin-10-yl)butan-1-one]
p53 induction / activation (p53): marked decrease in p53 activation

SMILES: CCCCC(Sc1nnc2c(n1)[nH]c1ccccc12)C(=O)N1c2ccccc2Sc2ccccc21 (stereo not drawn) [Compound 14, 2-((5H-[1,2,4]triazino[5,6-b]indol-3-yl)thio)-1-(10H-phenothiazin-10-yl)hexan-1-one]
p53 induction / activation (p53): lower activity for p53 induction

SMILES: CCC(Sc1nnc2c(n1)[nH]c1ccccc12)C(=O)N1c2ccccc2Sc2ccc(Cl)cc21 (stereo not drawn) [Compound 6, 2-((5H-[1,2,4]triazino[5,6-b]indol-3-yl)thio)-1-(2-chloro-10H-phenothiazin-10-yl)butan-1-one]
p53 induction / activation (p53): remained active in p53 induction

SMILES: CCC(Sc1nnc2c3ccccc3n(CCO)c2n1)C(=O)N1c2ccccc2Cc2ccccc21 (stereo not drawn) [Compound 37, 1-(acridin-10(9H)-yl)-2-((5-(2-hydroxyethyl)-5H-[1,2,4]triazino[5,6-b]indol-3-yl)thio)butan-1-one]
EC90 (H1299; Homo sapiens, NCI-H1299, read-out: EC90 cell growth inhibition, H1299, p53 null, calculated from EC50 and Hill slope): > 50 µM | inhibitory activity in p53-null cells [1]: much less effective | potency improvement compared to INZ in cancer growth inhibition ([2]; versus INZ): 5- to 10 fold | EC90 (HCT116^−/−; Homo sapiens, HCT-116, read-out: EC90 cell growth inhibition, HCT116^−/−, p53 null, calculated from EC50 and Hill slope): > 50 µM | fold higher potency than INZ in growth inhibition (H460): 10 fold | fold higher potency than INZ in growth inhibition (HCT116^+/+; HCT116^+/+): 5 fold | p53 induction / activation (p53): more potent in p53 activation than their parental compound INZ

SMILES: CCC(Sc1nnc2c3ccccc3n(CC(=O)O)c2n1)C(=O)N1c2ccccc2Sc2ccccc21 (stereo not drawn) [Compound 29, 2-(3-((1-oxo-1-(10H-phenothiazin-10-yl)butan-2-yl)thio)-5H-[1,2,4]triazino[5,6-b]indol-5-yl)acetic acid]
p53 induction / activation (p53): essentially inactive

SMILES: CCC(Sc1nnc2c3ccccc3n(C(=O)c3ccccc3)c2n1)C(=O)N1c2ccccc2Sc2ccccc21 (stereo not drawn) [Compound 21, 2-((5-benzoyl-5H-[1,2,4]triazino[5,6-b]indol-3-yl)thio)-1-(10H-phenothiazin-10-yl)butan-1-one]
inhibitory activity in p53-null cells [1]: much less effective

EC50 (H1299; H1299, p53 null, 72 hrs): 16.6 µM | EC90 fold lower than INZ ([2]; versus INZ): 5 fold | EC50 (HCT116^−/−; HCT116^−/−, p53 null, 72 hrs): 7.8 ± 3.4 µM | EC50 (H460): 3.5 ± 0.4 µM | EC90 (H460): ~7.7 µM and 7.7 µM | EC50 (HCT116^+/+; HCT116^+/+, p53 wild type, 72 hrs, read-out: EC50 cell growth inhibition): 0.8 ± 0.5 µM | EC90 (HCT116^+/+; HCT116^+/+, p53 wild type, calculated from EC50 and Hill slope, read-out: EC90 cell growth inhibition): 4.6 µM
SMILES: CCC(Sc1nnc2c3ccccc3n(CCO)c2n1)C(=O)N1c2ccccc2Sc2ccccc21 (stereo not drawn) [Compound 30, 2-((5(2-hydroxyethyl)-5H-[1,2,4]triazino[5,6-b]indol-5-yl)thiol)-1-(10H-phenothiazin-10-yl)butan-1-one]
inhibitory activity in p53-null cells [1]: much less effective | cell growth inhibition ([2]; compared with INZ or compound 8): comparable to compound 8 | p53 induction / activation (p53): comparable to compound 8; also recorded: more potent in p53 activation than their parental compound INZ

SMILES: CCC(Sc1nnc2c(n1)[nH]c1ccccc12)C(=O)N1c2ccccc2Sc2ccc(OC)cc21 (stereo not drawn) [Compound 7, 2-((5H-[1,2,4]triazino[5,6-b]indol-3-yl)thio)-1-(2-methoxy-10H-phenothiazin-10-yl)butan-1-one]
p53 induction / activation (p53): remained active in p53 induction

SMILES: CCC(Sc1nnc2c(n1)[nH]c1ccccc12)C(=O)N1c2ccccc2Sc2ccccc21 (stereo not drawn) [INZ, 2-((5H-[1,2,4]triazino[5,6-b]indole-3yl)thio)-1-(10H-phenothiazin-10-yl)butan-1-one, reference compound]
EC50 (H1299; Homo sapiens, NCI-H1299, 72 h): 11.6 ± 3.4 µM | EC90 (H1299; Homo sapiens, NCI-H1299, read-out: EC90 cell growth inhibition): 217 µM | EC50 fold greater in p53-null cells than in p53-containing cell lines ([1]; p53-null versus p53-containing): 1.5 fold | EC90 fold greater in p53-null cells than in p53-containing cell lines ([1]; p53-null versus p53-containing): 5-7 fold | EC50 (HCT116^−/−; Homo sapiens, HCT-116, 72 h): 13.3 ± 2.4 µM | EC90 (HCT116^−/−; Homo sapiens, HCT-116, read-out: EC90 cell growth inhibition): 213 µM | EC50 (H460; Homo sapiens, NCI-H460): 7.7 ± 1.1 µM | EC90 (H460; Homo sapiens, NCI-H460): ~39.9 µM | EC50 (HCT116^+/+; [5]): 3.52 µM | EC50 (HCT116^+/+; Homo sapiens, HCT-116, HCT116^+/+, p53 wild type, 72 hrs, read-out: EC50 cell growth inhibition): 2.7 ± 0.3 µM | EC90 (HCT116^+/+; [6]): 30.5 µM | growth of xenograft tumors [4]: repressed the growth of xenograft tumors

SMILES: C#CCCn1c2ccccc2c2nnc(SC(CC)C(=O)N3c4ccccc4Sc4ccccc43)nc21 (stereo not drawn) [Compound 32, 2-((5(but-3-yn-1-yl)-5H-[1,2,4]triazino[5,6-b]indol-3-yl)thiol)-1-(10H-phenothiazin-10-yl)butan-1-one]
p53 induction / activation (p53): significant decrease in activity

SMILES: CCOC(=O)Cn1c2ccccc2c2nnc(SC(CC)C(=O)N3c4ccccc4Sc4ccccc43)nc21 (stereo not drawn) [Compound 28, Ethyl 2-(3-((1-oxo-1-(10H-phenothiazin-10-yl)butan-2-yl)thio)-5H-[1,2,4]triazino[5,6-b]indol-5-yl)acetate]
p53 induction / activation (p53): essentially inactive

SMILES: CCC(Sc1nnc2c3ccccc3n(C(=O)CCCCC3CC4NC(=O)NC4S3)c2n1)C(=O)N1c2ccccc2Sc2ccccc21 (stereo not drawn) [Compound 20, 5-(5-oxo-5-(3-((1-oxo-1-(10H-phenothiazin-10-yl)butan-2-yl)thio)-5H-[1,2,4]triazino[5,6-b]indol-5-yl)pentyl)tetrahydro-1H-thieno[2,3-d]imidazole-2(5H)-one]
p53 induction / activation (p53): as effective as INZ
